Laboratory results taken from US20230150929A1, “SELECTIVE NON-CYCLIC NUCLEOTIDE ACTIVATORS FOR THE CAMP SENSOR EPAC1” (The Board of Regents of The University of Texas System, priority 2020, published 2023).

Target: T1, EPAC1-CNBD (Homo sapiens, UniProt O95398)
T1 sequence (O95398 169-318 isoform O95398-3): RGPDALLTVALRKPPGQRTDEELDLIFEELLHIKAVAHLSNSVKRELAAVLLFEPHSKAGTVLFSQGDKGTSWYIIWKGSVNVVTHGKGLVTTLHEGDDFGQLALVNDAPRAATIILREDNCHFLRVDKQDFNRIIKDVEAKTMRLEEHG
Assay: 8-NBD-cAMP competition binding assay, EPAC1-CNBD
Details: for EPAC1 binding potency / affinity in words: SAR comment on RFI, mostly relative to 3 or 9a; for RFI (%) (relative fluorescence intensity), Table 3 / RFI (%) (relative fluorescence intensity), Table 4 / RFI (%) (relative fluorescence intensity), Table 2 / RFI (%) (relative fluorescence intensity), Table 1: compound 10 µM, EPAC1-CNBD 0.8 µM, 8-NBD-cAMP 62.5 nM, mean ± SEM, lower RFI = stronger binding

Row | SMILES | EPAC1 binding potency / affinity in words | RFI (%) (relative fluorescence intensity), Table 4 | further results
1 | Cc1cc(C)c(S(=O)(=O)NC(=O)CSc2ccc3ccccc3c2)c(C)c1 [Compound 12a, N-(Mesitylsulfonyl)-2-(naphthalen-2-ylthio)acetamide] | completely inhibit EPAC binding potency |  | RFI (%) (relative fluorescence intensity), Table 3: 92 ± 2%
2 | Cc1ccc(S(=O)(=O)NC(=O)C(C)(C)Oc2ccc3ccccc3c2)c(C)c1 [Compound 12f, N ((2,4-Dimethylphenyl)sulfonyl)-2-methyl-2-(naphthalen-2-yloxy)propenamide] | partial or complete loss of binding activity |  | RFI (%) (relative fluorescence intensity), Table 3: 76 ± 3%
3 | Cc1ccc(S(=O)(=O)NC(=O)COc2ccc3ccc(Cl)cc3c2)c(C)c1 [Compound 9p, 2-((7-Chloronaphthalen-2-yl)oxy)-N-((2,4-dimethylphenyl)sulfonyl)acetamide] |  |  | RFI (%) (relative fluorescence intensity), Table 2: 66 ± 2%
4 | CC(=O)c1c(OCC(=O)NS(=O)(=O)c2c(C)cc(C)cc2C)ccc2ccccc12 [Compound 9d, 2-((1-Acetylnaphthalen-2-yl)oxy)-N-(mesitylsulfonyl)acetamide] | no significant improvement |  | RFI (%) (relative fluorescence intensity), Table 1: 104 ± 7%
5 | Cc1ccc(S(=O)(=O)NC(=O)COc2cccc3ccccc23)c(C)c1 [Compound 9q, N-((2,4-dimethylphenyl)sulfonyl)-2-(naphthalen-1-yloxy)acetamide] |  |  | RFI (%) (relative fluorescence intensity), Table 2: 71 ± 1%
6 | Cc1cc(C)c(S(=O)(=O)NC(=O)CN2CCN(c3ccccn3)CC2)c(C)c1 [Compound 9m, N-(Mesitylsulfonyl)-2-(4-(pyridin-2-yl)piperazin-1-yl)acetamide] |  |  | RFI (%) (relative fluorescence intensity), Table 1: 119 ± 8%
7 | COc1cc2c(cc1OC)CN(CC(=O)NS(=O)(=O)c1c(C)cc(C)cc1C)CC2 [Compound 9k, 2-(6,7-Dimethoxy-3,4-dihydroisoquinolin-2(1H)-yl)-N-(mesitylsulfonyl)acetamide] |  |  | RFI (%) (relative fluorescence intensity), Table 1: 102 ± 5%
8 | Cc1ccc(S(=O)(=O)NC(=O)COc2ccc3cc(F)ccc3c2)c(C)c1 [Compound 9o, 2-((6-Fluoronaphthalen-2-yl)oxy)-N-((2,4-dimethylphenyl)sulfonyl)acetamide] |  |  | RFI (%) (relative fluorescence intensity), Table 2: 55 ± 1%
9 | COc1ccc2ccc(OCC(=O)NS(=O)(=O)c3c(C)cc(C)cc3C)cc2c1 [Compound 9e, N-(Mesitylsulfonyl)-2-((7-methoxynaphthalen-2-yl)oxy)acetamide] |  |  | RFI (%) (relative fluorescence intensity), Table 1: 49 ± 3%; fold improvement in binding potency compared to 9a (from RFI at 10 µM): about 1.7 fold
10 | Cc1cc(C)c(S(=O)(=O)NC(=O)COc2ccc3c(c2)CCCC3)c(C)c1 [Compound 9f, N-(Mesitylsulfonyl)-2-((5,6,7,8-tetrahydronaphthalen-2-yl)oxy)acetamide] | slightly decreased binding potency |  | RFI (%) (relative fluorescence intensity), Table 1: 77 ± 2%
11 | Cc1ccc(S(=O)(=O)NCCOc2ccc3ccccc3c2)c(C)c1 [Compound 12g, 2,4-Dimethyl-N-(2-(naphthalen-2-yloxy)ethyl)benzenesulfonamide] | partial or complete loss of binding activity |  | RFI (%) (relative fluorescence intensity), Table 3: 81 ± 3%
12 | Cc1cc(C)c(S(=O)(=O)NCCOc2ccc3ccccc3c2)c(C)c1 [Compound 12c, 2,4,6-Trimethyl-N-(2-(naphthalen-2-yloxy)ethyl)benzenesulfonamide] | partial or complete loss of binding activity |  | RFI (%) (relative fluorescence intensity), Table 3: 105 ± 4%
13 | Cc1cc(C)c(S(=O)(=O)NC(=O)CN2CCc3ccccc3C2)c(C)c1 [Compound 9j, 2-(3,4-Dihydroisoquinolin-2(1H)-yl)-N-(mesitylsulfonyl)acetamide] |  |  | RFI (%) (relative fluorescence intensity), Table 1: 102 ± 1%
14 | Cc1cc(C)c(S(=O)(=O)NC(=O)CNc2ccc3ccccc3c2)c(C)c1 [Compound 12b, N-(Mesitylsulfonyl)-2-(naphthalen-2-ylamino)acetamide] |  |  | RFI (%) (relative fluorescence intensity), Table 3: 97 ± 5%
15 | Cc1ccc(S(=O)(=O)NC(=O)COc2ccc3[nH]ncc3c2)c(C)c1 [Compound 9s, 2-((1H-Indazol-5-yl)oxy)-N-((2,4-dimethylphenyl)sulfonyl)acetamide] |  |  | RFI (%) (relative fluorescence intensity), Table 2: 94 ± 4%
16 | Cc1ccc(S(=O)(=O)NC(=O)COc2ccc3[nH]ccc3c2)c(C)c1 [Compound 9r, 2-((1H-Indol-5-yl)oxy)-N-((2,4-dimethylphenyl)sulfonyl)acetamide] |  |  | RFI (%) (relative fluorescence intensity), Table 2: 91 ± 2%
17 | Cc1cc(C)c(S(=O)(=O)NC(=O)CN2CCn3c(nnc3C(F)(F)F)C2)c(C)c1 [Compound 9l, N-(Mesitylsulfonyl)-2-(3-(trifluoromethyl)-5,6-dihydro-[1,2,4]triazolo[4,3-a]pyrazin-7(8H)-yl)acetamide] |  |  | RFI (%) (relative fluorescence intensity), Table 1: 104 ± 2%
18 | Cc1ccc(S(=O)(=O)NC(=O)COc2ccc3cc(Cl)ccc3c2)c(C)c1 [Compound 9n, 2-((6-Chloronaphthalen-2-yl)oxy)-N-((2,4-dimethylphenyl)sulfonyl)acetamide] |  |  | RFI (%) (relative fluorescence intensity), Table 2: 50 ± 2%
19 | Cc1cc(C)c(S(=O)(=O)NC(=O)CNc2cccc(Cl)c2)c(C)c1 [Compound 9h, 2-((3-Chlorophenyl)amino)-N-(mesitylsulfonyl)acetamide] |  |  | RFI (%) (relative fluorescence intensity), Table 1: 88 ± 9%
20 | Cc1cc(C)c(S(=O)(=O)NC(=O)C(F)Oc2ccc3ccccc3c2)c(C)c1 (stereo not shown) [Compound 12e, 2-Fluoro-N-(mesitylsulfonyl)-2-(naphthalen-2-yloxy)acetamide] |  |  | RFI (%) (relative fluorescence intensity), Table 3: 82 ± 4%
21 | Cc1cc(C)c(S(=O)(=O)NC(=O)COc2ccc3cccnc3c2)c(C)c1 [Compound 9c, N-(Mesitylsulfonyl)-2-(quinolin-7-yloxy)acetamide] | no significant improvement |  | RFI (%) (relative fluorescence intensity), Table 1: 92 ± 2%
22 | Cc1cc(C)c(S(=O)(=O)N2CCC(Oc3ccc4ccccc4c3)CC2)c(C)c1 [Compound 12d, 1-(Mesitylsulfonyl)-4-(naphthalen-2-yloxy)piperidine] | partial or complete loss of binding activity |  | RFI (%) (relative fluorescence intensity), Table 3: 105 ± 3%

The next lines start with results.

Row | EPAC1 binding potency / affinity in words | RFI (%) (relative fluorescence intensity), Table 4 | SMILES | further results
23 |  | 34 ± 5% | Cc1cc(-c2ccnn2C)cc(S(=O)(=O)NC(=O)COc2ccc3ccccc3c2)c1 [Compound 25t, N-((3-Methyl-5-(1-methyl-1H-pyrazol-5-yl)phenyl)sulfonyl)-2-(naphthalen-2-yloxy)acetamide] | 
24 |  | 35± 1% | O=C(COc1ccc2ccccc2c1)NS(=O)(=O)c1cccc(-c2ccccc2)c1 [Compound 25ac, N-([1,1′-Biphenyl]-3-ylsulfonyl)-2-(naphthalene-2yloxy)acetamide] | 
25 |  | 49 ± 4% | COc1ccc(OC)c(S(=O)(=O)NC(=O)COc2ccc3ccc(OC)cc3c2)c1 [Compound 25o, N-((2,5-Dimethoxyphenyl)sulfonyl)-2-((7-methoxynaphthalen-2-yl)oxy)acetamide] | 
26 |  | 72 ± 4% | COc1ccc(OC)c(S(=O)(=O)NC(=O)COc2ccc3ccccc3c2)c1 [Compound 25h, N-((2,5-Dimethoxyphenyl)sulfonyl)-2-(naphthalen-2-yloxy)acetamide] | 
27 |  | 20 ± 3% | Cc1cc(Nc2ccc(C(F)(F)F)cn2)cc(S(=O)(=O)NC(=O)COc2ccc3ccccc3c2)c1 [Compound 25v, N-((3-Methyl-5-((5-(trifluoromethyl)pyridin-2-yl)amino)phenyl)sulfonyl)-2-(naphthalen-2-yloxy)acetamide] | fold binding potency increase versus compound 3 (from RFI at 10 µM): about 3 fold
28 | decreased the binding potency | 81 ± 4% | O=C(COc1ccc2ccccc2c1)NS(=O)(=O)c1ccc(F)cc1 [Compound 25d, N-((4-Fluorophenyl)sulfonyl)-2-(naphthalen-2-yloxy)acetamide] | 
29 | complete loss of affinity | 81±3% | O=C(COc1ccc2ccccc2c1)NS(=O)(=O)C1CCCCC1 [Compound 25aa, N-(Cyclohexylsulfonyl)-2-(naphthalen-2-yloxy)acetamide] | 
30 |  | 58 ± 2% | Cc1cc(Br)cc(S(=O)(=O)NC(=O)COc2ccc3ccccc3c2)c1 [Compound 25j, N-((3-Bromo-5-methylphenyl)sulfonyl)-2-(naphthalen-2-yloxy)acetamide] | 
31 |  | 50 ± 3% | COc1ccc(S(=O)(=O)NC(=O)COc2ccc3ccccc3c2)cc1OC [Compound 25i, N-((3,4-Dimethoxyphenyl)sulfonyl)-2-(naphthalen-2-yloxy)acetamide] | 
32 |  | 53 ± 2% | O=C(COc1ccc2ccccc2c1)NS(=O)(=O)c1cccc(-c2ccoc2)c1 [Compound 25ab, N-3-(Furan-3-yl)phenylsulfonyl-2-(naphthalene-2-yloxy)acetamide] | 
33 |  | 71 ± 1% | COC(=O)c1cccc(S(=O)(=O)NC(=O)COc2ccc3ccccc3c2)c1 [Compound 25ad, Methyl 3-(N-(2-(naphthalene-2-yloxy)acetyl)sulfamoyl)benzoate] | 
34 | decreased the binding potency | 69 ± 2% | O=C(COc1ccc2ccccc2c1)NS(=O)(=O)c1ccccc1F [Compound 25b, N-((2-Fluorophenyl)sulfonyl)-2-(naphthalen-2-yloxy)acetamide] | 
35 |  | 44 ± 2% | Cc1ccc(S(=O)(=O)NC(=O)COc2ccc3ccccc3c2)cc1 [Compound 25w, 2-(Naphthalen-2-yloxy)-N-tosylacetamide] | 
36 |  | 54 ± 6% | COc1ccc2ccc(OCC(=O)NS(=O)(=O)c3cc(Cl)cc(Cl)c3)cc2c1 [Compound 25l, N-((3,5-Dichlorophenyl)sulfonyl)-2-((7-methoxynaphthalen-2-yl)oxy)acetamide] | 
